This is an account of results in BindingDB's records for doi:10.1016/s0960-894x(00)00062-7 (University of Bristol, 2000).

The term IC50 denotes the concentration that inhibits the measured activity by half.

The experiment is described as follows: Inhibition of 3 nM [3H]clonidine binding to rat kidney membrane imidazoline receptor I-1 in presence of rauwolscine.

In the case of `N#CSc1ccc2oc(C3=NCCN3)cc2c1`, the IC50 worked out at 8.1 µM.
